According to ChEMBL document CHEMBL1201862, “PubChem BioAssay data set” (2004):
Activity calls are given as the source filed them.

Experiments:
[1] = biological target: T1, High affinity choline transporter 1 (Homo sapiens, UniProt Q9GZV3); assay: CHT inhibitors, dose response, cell-based, 5-point CRC, membrane potential dye (AID 504840); format: functional
T1 sequence (Q9GZV3 whole entry): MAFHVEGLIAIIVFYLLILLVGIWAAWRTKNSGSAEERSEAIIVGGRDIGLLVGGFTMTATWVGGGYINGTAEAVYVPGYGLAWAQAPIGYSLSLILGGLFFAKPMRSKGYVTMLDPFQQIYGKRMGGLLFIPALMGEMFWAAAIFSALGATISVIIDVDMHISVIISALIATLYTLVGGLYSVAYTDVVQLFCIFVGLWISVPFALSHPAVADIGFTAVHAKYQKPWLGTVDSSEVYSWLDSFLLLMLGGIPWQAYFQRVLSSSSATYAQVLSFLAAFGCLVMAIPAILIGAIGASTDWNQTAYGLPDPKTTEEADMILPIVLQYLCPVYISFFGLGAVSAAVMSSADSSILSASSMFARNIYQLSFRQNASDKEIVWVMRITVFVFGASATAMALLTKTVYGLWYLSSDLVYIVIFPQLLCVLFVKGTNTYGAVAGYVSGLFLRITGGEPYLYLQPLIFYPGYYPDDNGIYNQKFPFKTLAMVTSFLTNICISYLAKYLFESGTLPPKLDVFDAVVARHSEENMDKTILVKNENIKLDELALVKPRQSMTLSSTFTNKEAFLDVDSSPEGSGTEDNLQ

Coagulation factor XII = biological target: T2, Coagulation factor XII (Homo sapiens, UniProt P00748); format: functional;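 note: activated factor XIIa alpha cleaving a fluorogenic AMC peptide substrate; inhibitor potency from loss of enzyme activity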
T2 sequence (P00748 whole entry): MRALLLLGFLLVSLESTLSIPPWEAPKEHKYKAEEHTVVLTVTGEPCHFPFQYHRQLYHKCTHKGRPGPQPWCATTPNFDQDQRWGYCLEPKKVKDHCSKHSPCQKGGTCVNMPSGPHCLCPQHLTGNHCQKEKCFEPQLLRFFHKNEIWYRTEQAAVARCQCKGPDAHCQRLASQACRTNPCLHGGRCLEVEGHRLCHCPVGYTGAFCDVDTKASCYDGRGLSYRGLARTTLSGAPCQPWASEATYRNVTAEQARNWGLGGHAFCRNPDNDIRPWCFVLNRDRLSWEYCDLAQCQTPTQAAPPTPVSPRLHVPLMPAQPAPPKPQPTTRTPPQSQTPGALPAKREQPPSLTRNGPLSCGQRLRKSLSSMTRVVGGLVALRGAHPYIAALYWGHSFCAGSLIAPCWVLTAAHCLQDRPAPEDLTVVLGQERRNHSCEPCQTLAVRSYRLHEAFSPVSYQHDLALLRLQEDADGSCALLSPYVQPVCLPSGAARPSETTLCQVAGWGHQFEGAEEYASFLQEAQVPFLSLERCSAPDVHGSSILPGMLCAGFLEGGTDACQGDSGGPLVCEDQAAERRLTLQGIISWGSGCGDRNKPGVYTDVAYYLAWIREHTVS

[2] = biological target: Glyceraldehyde-3-phosphate dehydrogenase (Homo sapiens, UniProt P04406)
Glyceraldehyde-3-phosphate dehydrogenase, sequence (P04406 whole entry): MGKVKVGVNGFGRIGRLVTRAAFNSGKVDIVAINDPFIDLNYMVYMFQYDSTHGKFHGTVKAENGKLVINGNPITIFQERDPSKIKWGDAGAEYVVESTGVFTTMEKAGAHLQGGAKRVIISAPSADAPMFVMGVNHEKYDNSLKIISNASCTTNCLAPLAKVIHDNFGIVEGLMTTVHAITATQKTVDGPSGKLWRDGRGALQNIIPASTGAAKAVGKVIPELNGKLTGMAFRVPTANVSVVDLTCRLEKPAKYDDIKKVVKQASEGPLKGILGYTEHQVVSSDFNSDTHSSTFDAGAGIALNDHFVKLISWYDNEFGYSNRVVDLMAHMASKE

[3] = biological target: T3, Alkaline phosphatase, tissue-nonspecific isozyme (Homo sapiens, UniProt P05186); assay: human TNAP enzyme inhibitors, SAR follow-up, biochemical, luminescent, dose response (AID 1056)
T3 sequence (P05186 whole entry): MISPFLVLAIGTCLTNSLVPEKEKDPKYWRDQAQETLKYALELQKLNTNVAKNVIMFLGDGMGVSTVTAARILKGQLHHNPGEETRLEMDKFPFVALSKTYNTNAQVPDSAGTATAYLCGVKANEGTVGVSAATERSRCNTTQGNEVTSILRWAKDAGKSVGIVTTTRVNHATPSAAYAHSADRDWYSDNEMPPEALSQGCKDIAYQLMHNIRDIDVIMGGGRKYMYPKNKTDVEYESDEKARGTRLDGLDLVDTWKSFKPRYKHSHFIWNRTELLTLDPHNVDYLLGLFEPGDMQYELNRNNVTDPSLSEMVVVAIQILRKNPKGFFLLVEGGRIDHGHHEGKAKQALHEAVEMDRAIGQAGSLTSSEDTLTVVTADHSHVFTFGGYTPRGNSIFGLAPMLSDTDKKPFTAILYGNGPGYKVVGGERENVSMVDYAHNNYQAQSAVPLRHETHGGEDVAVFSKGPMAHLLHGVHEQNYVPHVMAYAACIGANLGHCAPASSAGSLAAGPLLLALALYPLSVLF

[4] = growth suppression of PTEN-null colon cells, dose response, cell-based, HCT116 PTEN knockout (AID 1047); format: functional;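 note: HCT116 colon tumor cells with PTEN knocked out; cells exposed to compound for 60 hours before readout; potency for loss of cell viability measured by luminescence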
[5] = growth suppression of beta-catenin-knockout colon cells, dose response, cell-based, HCT116, human colon tumor (AID 1045); format: functional;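 note: HCT116 colon tumor cells with beta catenin knocked out; cells exposed to compound for 60 hours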
[6] = THP-1 cell cytotoxicity, dose response, cytotoxicity control for Vif-APOBEC3G degradation inhibitor project, THP-1 cells (AID 1117359); format: functional; conditions: Human immunodeficiency virus 1, THP-1
[7] = P. falciparum 3D7-ScDHODH growth inhibitors, dose response, SYBR Green, dry powder samples (AID 1159570); format: functional, cell-based;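 note: parasite growth measured after 72 hours of compound exposure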
[8] = P. falciparum Dd2 growth inhibitors, dose response, SYBR Green, cherry-picked samples (AID 1159567); format: functional, cell-based
[9] = P. falciparum Dd2 growth inhibitors, dose response, SYBR Green, dry powder samples (AID 1159566); format: functional, cell-based;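 note: potency for growth inhibition with lower SYBR green DNA signal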
[10] = P. falciparum ATP4 D1247Y mutant growth inhibitors, dose response, NITD609-resistant line, SYBR Green, dry powder (AID 1159571); format: functional, cell-based;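 note: parasites synchronized at ring stage by sorbitol before testing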

SMILES: CCN(CC)CCC(c1ccc2c(c1)OCO2)c1c(OC)cc(OC)c2c(-c3ccccc3)cc(=O)oc12 (stereo unspecified)
- IC50 [1]: 18.2 µM (active)

SMILES: COc1ccc(-c2csc3ncnc(N4CCN(CCO)CC4)c23)cc1
- IC50 [1]: 13.8 µM (active)

SMILES: Cc1ccc(S(=O)(=O)N2CCN(Cc3cc(C(C)C)ccc3O)CC2)cc1
- IC50 (Coagulation factor XII): > 50 µM (inactive)

SMILES: CC(NC(=O)c1cccc(S(=O)(=O)N2CCN(C)CC2)c1)C1CC2CCC1C2 (stereo unspecified)
- IC50 [1]: 13.2 µM (active)

SMILES: O=C(NCCN1CCc2ccccc2C1)C1CC(=O)N(C2CCCC2)C1 (stereo unspecified)
- IC50 (Coagulation factor XII): > 50 µM (inactive)

SMILES: COc1ccc(Br)cc1S(=O)(=O)Nc1ccon1
- IC50 [2]: > 100 µM (not active)
- IC50 [3]: > 100 µM (inactive)

SMILES: Cc1nnc(NC(=O)c2c(F)c(F)c(F)c(F)c2F)s1
- IC50 (Coagulation factor XII): > 50 µM (inactive)

SMILES: CC1CCCCC1N=C(S)Nc1ccc(SC(F)F)cc1 (stereo unspecified)
- EC50 [4]: 17.5 µM (active)
- EC50 [5]: 19 µM (active)
- IC50 [1]: 7.63 µM (active)

SMILES: COc1ccc(OCCOC(=O)c2cc(S(=O)(=O)N3CCOCC3)c(Cl)cc2Cl)cc1
- CC50 [6]: 23.9 µM (active)

SMILES: NNC(=O)CN1C(=O)CN=C(c2ccccc2)c2cc(Br)ccc21
- IC50 (Coagulation factor XII): > 50 µM (inactive)

SMILES: CCOC(=O)Nc1cc(C)c(Cl)cc1OC
- CC50 [6]: > 40 µM (active)

SMILES: COC(=O)c1ccc(OC)c(S(=O)(=O)Nc2cnc3ccccc3c2)c1
- IC50 [2]: > 10 µM (inconclusive)
- IC50 [3]: > 10 µM (inactive)

SMILES: CN(C)/C=C1\C=C(c2ccccc2)OC1=O
- IC50 (Coagulation factor XII): > 50 µM (inactive)

SMILES: C[C@@H]1CN([C@@H](C)CO)C(=O)c2cccc(NC(=O)Nc3ccccc3)c2O[C@@H]1CN(C)C(=O)Nc1ccccc1
- AC50 [7]: 1.06 µM (active)
- AC50 [8]: 370 nM (active)
- AC50 [9]: 204 nM (active)
- AC50 [10]: 216 nM (active)
